Measurements taken from patent US20090068143A1, “ORALLY EFFECTIVE C[…]” (priority 2005, published 2009).
Marks after values point to notes of the source that are not given here.

What was measured:
F4/80 = experiment: Real-time RT-PCR gene expression in CNS of MOG induced EAE: F4/80; type: in vivo, mouse; conditions: 40 mg/kg p.o., day 31; over naive animals
Protocol: (§1) Total RNA is prepared using SV total RNA isolation system (Promega). The brains and spinal cords, which were removed on day 31 from five animals treated with vehicle (i.e. untreated) or 40 mg/kg p.o. of compound 18F (i.e. treated) in the MOG-induced EAE study, were homogenized in lysis buffer. The lysates were transferred to an RNA isolation column, treated with DNAse, washed and eluted according to kit instructions. RNA concentrations were determined using GeneQuant II (Pharmacia-Amersham). Complementary DNA (cDNA) was synthesized from total RNA using […] II reverse transcriptase (Life Technologies). […] Quantitative real-time RT-PCR included 1 μl of the cDNA, 300 nM of the appropriate forward and reverse primers (according to the gene monitored) and 7.5 μl of the reaction mix containing buffer, nucleotides, Taq polymerase and SYBER green (SYBER Green master mix, Applied Biosystems), in a total reaction volume of 15 μl. […] During each annealing step, the amount of the amplified product was measured by the fluorescence of the double strand DNA binding dye, SYBER Green. The cycle of threshold (CT), representing the PCR cycle at which an increase in fluorescence above a baseline signal can be first detected, was determined for each product. […] Results were expressed as fold increase of gene expression in treated or untreated animals above the naive animals. […]

IFN-γ = experiment: Real-time RT-PCR gene expression in CNS of MOG induced EAE: IFN-γ; type: in vivo, mouse; conditions: 40 mg/kg p.o., day 31, over naive animals
Protocol: as §1

400 Gene Array = experiment: Gene array analysis of spinal cords, MOG induced EAE; type: in vivo, mouse; conditions: out of the 400 genes tested
Protocol: In an additional study, the gene expression profiling was performed using a 400 Gene Array series kit of SuperArray Bioscience Corporation according to manufacturer protocol and RNA extracted from spinal cords of treated or untreated animals, as above described. The scanned data were converted to mRNA expression levels and analyzed using two softwares, ScanAlayze and GEArray Analyzer. […] The genes so identified will be further analyzed by real time RT-PCR at other time points during disease progression. It is interesting to note that the genes whose expression is altered in MOG induced EAE animals following treatment with compounds of the invention broadly speaking encode for proteins involved in the immune system, such as STAT proteins which are involved in signal transduction of several cytokines and growth factors, JAK kinases, β2-microglobulin, TNF-receptor superfamily, calmodulins, and cyclin-dependent kinases.

IL-1β = experiment: Real-time RT-PCR gene expression in CNS of MOG induced EAE: IL-1β; type: in vivo, mouse
Protocol: Total RNA is prepared using SV total RNA isolation system (Promega). The brains and spinal cords, which were removed on day 31 from five animals treated with vehicle (i.e. untreated) or 40 mg/kg p.o. of compound 18F (i.e. treated) in the MOG-induced EAE study, were homogenized in lysis buffer. The lysates were transferred to an RNA isolation column, treated with DNAse, washed and eluted according to kit instructions. RNA concentrations were determined using GeneQuant II (Pharmacia-Amersham). Complementary DNA (cDNA) was synthesized from total RNA using […] II reverse transcriptase (Life Technologies). 2 μg of total RNA were combined with an oligo (dT)15 primer, 0.5 mM dNTP mix, 8 units of reverse transcriptase and other reaction components up to a final volume of 20 μl, according to the kit instructions. The reaction mixture was incubated at 42° C. for 45 min and inactivated at 70° C. for 15 minutes. Quantitative real-time RT-PCR included 1 μl of the cDNA, 300 nM of the appropriate forward and reverse primers (according to the gene monitored) and 7.5 μl of the reaction mix containing buffer, nucleotides, Taq polymerase and SYBER green (SYBER Green master mix, Applied Biosystems), in a total reaction volume of 15 μl. Gene amplification was obtained using the GeneAmp 5700 sequence detection system (Applied Biosystems). […] During each annealing step, the amount of the amplified product was measured by the fluorescence of the double strand DNA binding dye, SYBER Green. The cycle of threshold (CT), representing the PCR cycle at which an increase in fluorescence above a baseline signal can be first detected, was determined for each product. […] Results were expressed as fold increase of gene expression in treated or untreated animals above the naive animals. […]
The results expressed as folds gene expression over naive animals (following normalization to Cyclophilin) are compiled in the following table. […] Statistical significance was analyzed by unpaired two-tailed t-test and one asterisk (*) indicates statistical significance of p<0.05, whereas ** indicates statistical significance of p<0.01.

CB2 = experiment: Real-time RT-PCR gene expression in CNS of MOG induced EAE: CB2; type: in vivo, mouse; conditions: 40 mg/kg p.o., day 31, over naive animals
Protocol: as §1

acute pain = conditions: pretreatment, administered orally; cited from earlier work

CCCCCCC(C)(C)c1cc(O)c([C@H]2CC(=O)C3CC2C3(C)C)c(OC(=O)/C=C/C(=O)O)c1 (single isomer, unassigned; (-)) [Compound 18F, (−)-4-{4-[1,1-Dimethylheptyl]-2-fumarate-6-hydroxy-phenyl}-6,6-dimethyl-bicyclo[3.1.1]heptan-2-one]
Fold gene expression F4/80, Brain, Treated (F4/80): 1.5 fold | Fold gene expression F4/80, Spinal Cord, Treated (F4/80): 5.5 fold | Fold gene expression IFN-γ, Spinal Cord, Treated (IFN-γ): 3 fold | Fold gene expression IFN-γ, Brain, Treated (IFN-γ; untreated −9): 1* fold | genes down-regulated or up-regulated by more than 1.5 fold upon treatment (400 Gene Array): twenty | Fold gene expression IL-1β, Brain, Treated (IL-1β; 40 mg/kg p.o., day 31, over naive animals, untreated 5.5): 3* fold | Fold gene expression IL-1β, Spinal Cord, Treated (IL-1β; 40 mg/kg p.o., day 31, over naive animals, untreated 11): 4* fold | IL-1β overexpression in brain and spinal cord (IL-1β; treated p.o., untreated 5 to 11-fold): 3-4 fold | Fold gene expression CB2, Spinal Cord, Treated (CB2): 2 fold | Fold gene expression CB2, Brain, Treated (CB2; untreated −13): 1* fold | efficacy against acute pain (acute pain): effective against acute pain
